The text below walks through data of patent publication US20240208986A1, “PHENYL AZEPINES AS RIPK1 INHIBITORS AND METHODS OF USE THEREOF” (Merck Sharp & Dohme LLC, priority 2021, published 2024).

This assay addresses RIPK1 (recombinant GST-RIPK1 kinase domain, residues 1-327) (Homo sapiens (Human), UniProt Q13546). Put plainly: RIPK1-ADP-Glo Enzymatic Assay. In kind it is biochemical. The settings on record: 25 nM GST-RIPK1, 300 μM ATP, 3 μM dephosphorylated-MBP; 30 minutes pre-incubation, 150 minutes reaction; ten-point titration. Here is the method: The enzymatic activity of RIPK1 is measured using an assay derived from ADP-Glo kit (™Promega), which provides a luminescent-based ADP detection system. Specifically, the ADP generated by RIPK1 kinase is proportionally detected as luminescent signals in a homogenous fashion. In this context, the assessment of the inhibitory effect of small molecules (EC50) is measured by the effectiveness of the compounds to inhibit the ATP to ADP conversion by RIPK1.
In this assay, the potency (EC50) of each compound was determined from a ten-point (1:3 serial dilution; top compound concentration of 100000 nM) titration curve using the following outlined procedure. To each well of a white ProxiPlus 384 well-plate, 30 nL of compound (1% DMSO in final assay volume of 3 μL) was dispensed, followed by the addition of 2 μL of 1× assay buffer (25 mM Hepes 7.3, 20 mM MgCl2, 50 mM NaCl, 1 mM DTT, 0.005% Tween20, and 0.02% BSA) containing 37.5 nM of GST-RIPK1 (recombinant GST-RIPK1 kinase domain (residues 1-327) enzyme produced from baculovirus-transfected Sf21 cells: MW=62 kDa). Plates were placed in an ambient temperature humidified chamber for a 30 minutes pre-incubation with compound. Subsequently, each reaction was initiated by the addition of 1 μL 1× assay buffer containing 900 μM ATP and 3 μM dephosphorylated-MBP substrate. The final reaction in each well of 3 μL consists of 25 nM of GST-RIPK1, 300 μM ATP, and 3 μM dephosphorylated-MBP. Kinase reactions were allowed to proceed for 150 minutes prior to adding ADP-Glo reagents per Promega's outlined kit protocol. Dose-response curves were generated by plotting percent effect (% product conversion; Y-axis) vs. Log10 compound concentrations (X-axis). EC50 values were calculated using a non-linear regression, four-parameters sigmoidal dose-response model.

Sequence of RIPK1 (recombinant GST-RIPK1 kinase domain, residues 1-327) (Q13546 1-327): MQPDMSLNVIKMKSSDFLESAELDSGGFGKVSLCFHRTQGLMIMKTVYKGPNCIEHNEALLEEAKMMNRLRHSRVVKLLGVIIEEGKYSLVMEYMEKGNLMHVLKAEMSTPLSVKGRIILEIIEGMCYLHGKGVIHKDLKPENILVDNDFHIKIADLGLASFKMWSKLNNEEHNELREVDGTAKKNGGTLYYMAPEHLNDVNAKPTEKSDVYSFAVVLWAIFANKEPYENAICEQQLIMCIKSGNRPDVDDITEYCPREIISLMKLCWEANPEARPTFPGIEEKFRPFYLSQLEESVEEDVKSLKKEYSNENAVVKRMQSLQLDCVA

Take `CC1(C(=O)N2C[C@@H]3C[C@H]2c2ccccc2O3)CC1(F)F` (mixture of isomers) [Compound 1-14, [(R and S)-2,2-difluoro-1-methylcyclopropyl]-[(2S,5S)-2,3-dihydro-2,5-methano-1,4-benzoxazepin-4(5H)-yl]methanone]: the IC50 came out at 313 nM.
Under `CC1(C(=O)N2C[C@@H]3C[C@H]2c2ccccc2O3)CC1(Cl)Cl` (mixture of isomers) [Compound 1-20, [(R and S)-2,2-dichloro-1-methylcyclopropyl]-[(2S,5S)-2,3-dihydro-2,5-methano-1,4-benzoxazepin-4(5H)-yl]methanone] stands 62 nM.
As for `CC1(C)CCC1C(=O)N1C[C@@H]2C[C@H]1c1ccccc1O2` (mixture of isomers) [Compound 1-27, [(2S,5S)-2,3-dihydro-2,5-methano-1,4-benzoxazepin-4(5H)-yl]-[(R and S)-2,2-dimethylcyclobutyl] methanone], the IC50 came to 921 nM.
With `C[C@H]1CC[C@@](C)(C(=O)N2C[C@@H]3C[C@H]2c2ccccc2O3)C1(C)C` (racemic) [Compound 1-32, [(2S,5S)-2,3-dihydro-2,5-methano-1,4-benzoxazepin-4(5H)-yl][(1R,3S and 1S,3R)-1,2,2,3-tetramethylcyclopentyl] methanone], the IC50 amounted to 391 nM.
As to `O=C(C1CCCCC12CC2)N1C[C@@H]2C[C@H]1c1ccccc1O2` (mixture of isomers) [Compound 1-35, [(2S,5S)-2,3-dihydro-2,5-methano-1,4-benzoxazepin-4(5H)-yl]-[(R and S)-spiro[2.5]octan-4-yl]methanone], the IC50 turned out to be 220 nM.
With `CC1(C(=O)N2C[C@@H]3C[C@H]2c2ccccc2O3)CCOC1` (mixture of isomers) [Compound 1-50, [(2S,5S)-2,3-dihydro-2,5-methano-1,4-benzoxazepin-4(5H)-yl]-[(R and S)-3-methyloxolan-3-yl]methanone], the IC50 was found to be 393 nM.
With `CC(C)(C)C(=O)N1C2CCC1c1ccccc1OC2` (single isomer, unassigned) [Compound 3-1, 2,2-dimethyl-1-((3S,6R or 3R,6S)-3,4,5,6-tetrahydro-2H-3,6-epiminobenzo[b]oxocin-11-yl)propan-1-one], the IC50 was found to be 281 nM.
For `O=C(N1C[C@H]2Cc3ccccc3[C@@H]1C2)C12CCC(C(F)(F)F)(CC1)C2` (single isomer, unassigned) [Compound 3-4], the IC50 is 267 nM.
Take `C[C@@]12C[C@@H](c3ccccc3O1)N(C(=O)C13CCC(CC1)C3)C2` (single isomer, unassigned) [Compound 3-7]: the IC50 was 6580 nM.
With `C[C@@]12C[C@@H](c3ccccc3O1)N(C(=O)C13CCC(F)(CC1)C3)C2` (single isomer, unassigned) [Compound 3-8], the IC50 stood at 3980 nM.
Turning to `C[C@@]12C[C@@H](c3ccccc3O1)N(C(=O)C13CCC(C(F)(F)F)(CC1)C3)C2` (single isomer, unassigned) [Compound 3-9], the IC50 was determined as 2410 nM.
On to `O=C(NCc1ccc(Cl)cc1)C(=O)N1CC2C[C@H]1c1ccccc1O2` (stereo in doubt) [Compound 1-56, N-[(4-chlorophenyl)methyl]-2-[(2R,5S)-2,3-dihydro-2,5-methano-1,4-benzoxazepin-4(5H)-yl]-2-oxoacetamide], for which the half-inhibitory concentration (IC50) amounted to 863 nM.
Take `CC(C)(C)C(=O)N1C[C@@H]2C[C@H]1c1ccccc1O2` [Compound 1-1, 1-((2S,5S)-2,3-dihydro-2,5-methanobenzo[f][1,4]oxaze-pin-4(5H)-yl)-2,2-dimethylpropan-1-one]: the IC50 was found to be 48 nM.
As for `CC(C)(C(=O)N1C[C@@H]2C[C@H]1c1ccccc1O2)C(F)F` [Compound 1-2, 1-((2S,5S)-2,3-dihydro-2,5-methanobenzo[f][1,4]oxaze-pin-4(5H)-yl)-3,3-difluoro-2,2-dimethylpropan-1-one], the IC50 was 61 nM.
Under `CC1(C(=O)N2C[C@@H]3C[C@H]2c2ccccc2O3)CCC1` [Compound 1-3, ((2S,5S)-2,3-dihydro-2,5-methanobenzo[f][1,4]oxaze-pin-4(5H)-yl)(1-methylcyclobutyl)methanone] stands 97 nM.
As for `O=C(N1C[C@@H]2C[C@H]1c1ccccc1O2)C12CCC(CC1)C2` [Compound 1-4, bicyclo[2.2.1]heptan-1-yl((2S,5S)-2,3-dihydro-2,5-methanobenzo[f][1,4]oxaze-pin-4(5H)-yl)methanone], the half-maximal inhibitory concentration (IC50) amounted to 33 nM.
With `CC1(C(=O)N2C[C@@H]3C[C@H]2c2ccccc2O3)CCCCC1` [Compound 1-5, ((2S,5S)-2,3-dihydro-2,5-methanobenzo[f][1,4]oxaze-pin-4(5H)-yl)(1-methylcyclohexyl)methanone], the half-maximal inhibitory concentration (IC50) was 42 nM.
Turning to `CC1(C(=O)N2C[C@@H]3C[C@H]2c2ccccc2O3)CCCC1` [Compound 1-6, ((2S,5S)-2,3-dihydro-2,5-methanobenzo[f][1,4]oxaze-pin-4(5H)-yl)(1-methylcyclopentyl) methanone], the IC50 came to 43 nM.
With `CC(C)(COC(F)(F)F)C(=O)N1C[C@@H]2C[C@H]1c1ccccc1O2` [Compound 1-7, 1-((2S,5S)-2,3-dihydro-2,5-methanobenzo[f][1,4]oxaze-pin-4(5H)-yl)-2,2-dimethyl-3-(trifluoromethoxy)propan-1-one], the concentration for half-maximal inhibition (IC50) was found to be 217 nM.
For the compound `O=C(C1CCCCC1)N1C[C@@H]2C[C@H]1c1ccccc1O2` [Compound 1-8, cyclohexyl((2S,5S)-2,3-dihydro-2,5-methanobenzo[f][1,4]oxaze-pin-4(5H)-yl)methanone], the IC50 amounted to 641 nM.
Take `O=C(N1C[C@@H]2C[C@H]1c1ccccc1O2)C1(F)CCCCC1` [Compound 1-9, ((2S,5S)-2,3-dihydro-2,5-methanobenzo[f][1,4]oxaze-pin-4(5H)-yl)(1-fluorocyclohexyl)methanone]: the IC50 worked out at 381 nM.
Turning to `O=C(N1C[C@@H]2C[C@H]1c1ccccc1O2)C12CCCC(C1)C2` [Compound 1-10, bicyclo[3.1.1]heptan-1-yl((2S,5S)-2,3-dihydro-2,5-methanobenzo[f][1,4]oxaze-pin-4(5H)-yl)methanone], the IC50 amounted to 138 nM.
Turning to `CC(C)(C(=O)N1C[C@@H]2C[C@H]1c1ccccc1O2)C1CCC1` [Compound 1-11, 2-cyclobutyl-1-[(2S,5S)-2,3-dihydro-2,5-methano-1,4-benzoxazepin-4(5H)-yl]-2-methylpropan-1-one], the half-maximal inhibitory concentration (IC50) was 244 nM.
With `CC(F)(F)C1(C(=O)N2C[C@@H]3C[C@H]2c2ccccc2O3)CCC1` [Compound 1-12, [1-(1,1-difluoroethyl)cyclobutyl] [(2S,5S)-2,3-dihydro-2,5-methano-1,4-benzoxazepin-4(5H)-yl]methanone], the IC50 worked out at 86 nM.
Turning to `O=C(N1C[C@@H]2C[C@H]1c1ccccc1O2)C1(C(F)F)CCCC1` [Compound 1-13, [1-(difluoromethyl)cyclopentyl] [(2S,5S)-2,3-dihydro-2,5-methano-1,4-benzoxazepin-4(5H)-yl]methanone], the IC50 turned out to be 104 nM.
Regarding `CC1(C)C(C(=O)N2C[C@@H]3C[C@H]2c2ccccc2O3)C1(C)C` [Compound 1-15, [(2S,5S)-2,3-dihydro-2,5-methano-1,4-benzoxazepin-4(5H)-yl](2,2,3,3-tetramethylcyclopropyl) methanone], the half-maximal inhibitory concentration (IC50) stood at 981 nM.
As for `O=C(N1C[C@@H]2C[C@H]1c1ccccc1O2)C1(C(F)(F)F)CCC1` [Compound 1-16, [(2S,5S)-2,3-dihydro-2,5-methano-1,4-benzoxazepin-4(5H)-yl][1-(trifluoromethyl)cyclobutyl] methanone], the IC50 turned out to be 96 nM.
Take `CC(F)(F)C(C)(C)C(=O)N1C[C@@H]2C[C@H]1c1ccccc1O2` [Compound 1-17, 1-[(2S,5S)-2,3-dihydro-2,5-methano-1,4-benzoxazepin-4(5H)-yl]-3,3-difluoro-2,2-dimethylbutan-1-one]: the IC50 came out at 47 nM.
With `CC(C)(C(=O)N1C[C@@H]2C[C@H]1c1ccccc1O2)C(F)(F)F` [Compound 1-18, 1-[(2S,5S)-2,3-dihydro-2,5-methano-1,4-benzoxazepin-4(5H)-yl]-3,3,3-trifluoro-2,2-dimethylpropan-1-one], the IC50 turned out to be 73 nM.
For `O=C(N1C[C@@H]2C[C@H]1c1ccccc1O2)C1(F)CCCC1` [Compound 1-19, [(2S,5S)-2,3-dihydro-2,5-methano-1,4-benzoxazepin-4(5H)-yl](1-fluorocyclopentyl)methanone], the IC50 worked out at 499 nM.
On to `CC(C)(C)CC(=O)N1C[C@@H]2C[C@H]1c1ccccc1O2` [Compound 1-21, 1-[(2S,5S)-2,3-dihydro-2,5-methano-1,4-benzoxazepin-4(5H)-yl]-3,3-dimethylbutan-1-one], for which the IC50 was 888 nM.
For `CCC(C)(C)C(=O)N1C[C@@H]2C[C@H]1c1ccccc1O2` [Compound 1-22, 1-[(2S,5S)-2,3-dihydro-2,5-methano-1,4-benzoxazepin-4(5H)-yl]-2,2-dimethylbutan-1-one], the IC50 stood at 21 nM.
